Results taken from patent publication US9139577B2, “Sulfoximine substituted quinazolines for pharmaceutical compositions” (Boehringer Ingelheim International GmbH, priority 2013, dated 2015).

What follows are molecules tested against MNK2a (Homo sapiens (Human), UniProt Q9HBH9) (assay: MNK2a in vitro kinase assay (Assay 2), ADP-Glo). Conditions: read-out: MNK2 IC50.
Format: biochemical
Method: B. MNK2a In vitro Kinase Assay (Assay 2)
ASSAY SETUP: The inhibition of kinase activity of MNK2a was assessed using pre-activated GST-MNK2a. The white, 384-well OptiPlate F plates were purchased from PerkinElmer. The ADP-Glo Kinase Assay (including ultra pure ATP) was purchased from Promega (V9103). Activated MNK2a was obtained as described in WO2011/104340. […] ID No. 5 of WO 2011/104340 by the C-terminal —CONH2 group, was purchased from Thermo Fisher Scientific. All other materials were of highest grade commercially available. Compounds are tested in either serial dilutions or single dose concentrations. The compound stock solutions are 10 mM in 100% DMSO The serial compound dilutions are prepared in 100% DMSO followed by 1:27.3 intermediate dilution in assay buffer. The final DMSO concentration in assay will be <3%. In the 384-well plates 3 μl of test compound from the intermediate dilution is mixed with 4 μl of the activated MNK2 enzyme (final concentration of 10 nM) and 4 μl of the peptide (final concentration of 25 μM)/ultra pure ATP (final concentration of 20 μM), all dissolved in assay buffer. This step is followed by an incubation time of 90 min, then 10 μl of ADP Glo reagent are added, followed by 40 min of incubation. Then 20 μl of kinase detection reagent are admixed. The plates are sealed and after an incubation period of 30 min, the luminescence signal is measured in an Envision reader to determine the amount of produced ADP. All incubation steps are performed at room temperature. The assay buffer consists of 20 mM HEPES, 2 mM DTT, 0.01% BSA, 20 mM MgCl2 and 0.1% Pluronic F-127.
The luminescent signal generated is proportional to the ADP concentration produced and is correlated with activated MNK2 activity. The analysis of the data is performed by the calculation of the percentage of ATP consumption of activated MNK2 in the presence of the test compound compared to the consumption of ATP in the presence of activated MNK2 without compound. (RLU(sample)−RLU(low control))*100/(RLU(high value)−RLU(low control)) [RLU=relative luminescence units]
[…] values based on dose response curves are calculated with the AssayExplorer software.

Chain of MNK2a (Q9HBH9 whole entry): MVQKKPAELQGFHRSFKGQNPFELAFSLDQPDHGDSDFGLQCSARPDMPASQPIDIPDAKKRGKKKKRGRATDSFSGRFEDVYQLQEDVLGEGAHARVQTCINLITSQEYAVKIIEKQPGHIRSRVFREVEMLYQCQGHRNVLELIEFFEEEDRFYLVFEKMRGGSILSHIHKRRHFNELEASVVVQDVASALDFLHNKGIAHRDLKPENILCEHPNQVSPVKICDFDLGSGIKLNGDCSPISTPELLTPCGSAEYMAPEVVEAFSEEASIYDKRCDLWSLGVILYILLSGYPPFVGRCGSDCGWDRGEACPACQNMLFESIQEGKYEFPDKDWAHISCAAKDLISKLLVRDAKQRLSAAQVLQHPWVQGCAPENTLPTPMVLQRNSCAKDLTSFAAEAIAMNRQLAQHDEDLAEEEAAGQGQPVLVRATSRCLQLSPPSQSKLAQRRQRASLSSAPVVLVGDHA

Row | Compound | IC50 [nM]
1 | CC(NC(=O)[C@@H](C)Oc1cc(F)ccc1Nc1ncnc2cc(N=S(C)(C)=O)cc(Cl)c12)C(F)F (stereo partly shown) [Example 4.134] | 3
2 | CC(C)NC(=O)[C@@H](C)Oc1cc(F)ccc1Nc1ncnc2cc(N=S3(=O)CCC3)cc(F)c12 [Example 4.114] | 5
3 | Cc1cc(N=S2(=O)CCCC2)cc2ncnc(Nc3ccc(F)cc3OC(C)C(C)(C)C#N)c12 (stereo not shown) [Example 2.007] | 3
4 | Cc1cc(N=S(C)(C)=O)cc2ncnc(Nc3ccc(F)cc3O[C@H](C)C(=O)N3CCC3)c12 [Example 4.049] | 19
5 | Cc1cc(N=S(C)(C)=O)cc2ncnc(Nc3ccc(F)cc3O[C@H](C)C(=O)N[C@H](C)C(F)(F)F)c12 [Example 3.051] | 3
6 | CC(NC(=O)[C@@H](C)Oc1cc(F)ccc1Nc1ncnc2cc(N=S3(=O)CCC3)cc(F)c12)C(F)F (stereo partly shown) [Example 4.130] | 3
7 | C[C@@H](Oc1cc(F)ccc1Nc1ncnc2cc(N=S3(=O)CC4(COC4)C3)cc(Cl)c12)C(=O)NCC(F)(F)F [Example 2.024] | 3
8 | Cc1cc(N=S(C)(C)=O)cc2ncnc(Nc3ccc(F)cc3OCC3CNC(=O)C3)c12 (stereo not shown) [Example 3.037] | 3
9 | Cc1cc(N=S2(=O)CCC2)cc2ncnc(Nc3ccc(Cl)cc3O[C@H](C)C(=O)N[C@@H](C)C#N)c12 [Example 4.147] | 3
10 | Cc1cc(N=S(C)(C)=O)cc2ncnc(Nc3ccc(F)cc3O[C@H](C)C(=O)N(CC(F)(F)F)CC(F)(F)F)c12 [Example 3.055] | 3
11 | CC(C)Oc1ncccc1Nc1ncnc2cc(N=S(C)(C)=O)cc(F)c12 [Example 2.015] | 190
12 | Cc1nnc(C(C)Oc2cc(F)ccc2Nc2ncnc3cc(N=S(C)(C)=O)cc(C)c23)o1 (stereo not shown) [Example 3.041] | 33
13 | CC(C)NC(=O)[C@@H](C)Oc1cc(F)ccc1Nc1ncnc2cc(N=S(C)(C)=O)cc(Cl)c12 [Example 4.076] | 4
14 | Cc1cc(N=S(C)(C)=O)cc2ncnc(Nc3ccc(F)cc3O[C@H](CF)C(=O)NCC(F)(F)F)c12 [Example 7.013] | 4
15 | Cc1cc(N=S(C)(C)=O)cc2ncnc(Nc3ccc(C#N)cc3OC(C)C(F)(F)F)c12 (stereo not shown) [Example 1.001] | 17
16 | COC(=O)N1CCS(=O)(=Nc2cc(C)c3c(Nc4ccc(F)cc4O[C@H](C)c4cc(C)no4)ncnc3c2)CC1 [Example 5.013] | 2
17 | Cc1cc(N=S(C)(C)=O)cc2ncnc(Nc3ccc(Cl)cc3O[C@H](C)C(=O)NCC(F)(F)F)c12 [Example 4.092] | 2

Row | Compound | IC50 [nM]
18 | C[C@@H](Oc1cc(F)ccc1Nc1ncnc2cc(N=S3(=O)CCC3)cc(F)c12)C(=O)NCCF [Example 4.117] | 3
19 | CC(NC(=O)[C@@H](C)Oc1cc(F)ccc1Nc1ncnc2cc(N=S3(=O)CCC3)cc(C(F)F)c12)C(F)F (stereo partly shown) [Example 4.146] | 4
20 | COc1cc(N=S2(=O)CCCC2)cc2ncnc(Nc3ccc(F)cc3O[C@H](C)C(=O)NCC(F)(F)F)c12 [Example 3.011] | 2
21 | Cc1cc(N=S(C)(C)=O)cc2ncnc(Nc3ccc(F)cc3O[C@H](C)C(=O)NCC(F)(F)C(F)(F)F)c12 [Example 4.119] | 2
22 | C[C@H](C#N)NC(=O)[C@@H](C)Oc1cc(F)ccc1Nc1ncnc2cc(N=S3(=O)CCC3)cc(Cl)c12 [Example 4.112] | 2
23 | Cc1cc(N=S2(=O)CCC2)cc2ncnc(Nc3ccc(F)cc3O[C@H](C)C(=O)NCCC(F)(F)F)c12 [Example 4.089] | 1
24 | Cc1cc(N=S(C)(=O)C(C)C)cc2ncnc(Nc3ccc(F)cc3O[C@H](C)C(=O)NCC(F)(F)F)c12 (stereo partly shown) [Example 2.046] | 3
25 | Cc1cc(N=S(C)(=O)C2CC2)cc2ncnc(Nc3ccc(F)cc3O[C@H](C)C(=O)NCC(F)(F)F)c12 (stereo partly shown) [Example 2.042] | 5
26 | C[C@@H](Oc1cc(F)ccc1Nc1ncnc2cc(N=S(C)(C)=O)cc(Cl)c12)C(=O)NCC#N [Example 4.085] | 2
27 | COc1cc(N=S(C)(C)=O)cc2ncnc(Nc3cccnc3O[C@H](C)C(=O)NCC(F)(F)F)c12 [Example 6.004] | 3
28 | CCOc1cc(N=S2(=O)CCC2)cc2ncnc(Nc3ccc(F)cc3O[C@H](C)C(=O)NCC(F)(F)F)c12 [Example 6.003] | 4
29 | C[C@@H](Oc1cc(F)ccc1Nc1ncnc2cc(N=S(C)(=O)C(C)(C)C)cc(F)c12)C(=O)NCC(F)(F)F (stereo partly shown) [Example 2.040] | 18
30 | Cc1cc(C(Oc2cc(F)ccc2Nc2ncnc3cc(N=S(C)(C)=O)cc(C)c23)C(F)(F)F)on1 (stereo not shown) [Example 1.010] | 17
31 | COc1cc(N=S2(=O)CCC2)cc2ncnc(Nc3ccc(F)cc3O[C@H](C)C(=O)N[C@@H](C)C(F)(F)F)c12 [Example 6.001] | 5
32 | Cc1cc(N=S(C)(C)=O)cc2ncnc(Nc3ccc(F)cc3O[C@H](C)C(=O)N3CCCC3)c12 [Example 4.016] | 20
33 | Cc1cc(N=S2(=O)CCC2)cc2ncnc(Nc3ccc(F)cc3O[C@H](C)C(=O)NCCC(F)F)c12 [Example 4.116] | 2

Further molecules by falling IC50, results first:

Row | IC50 [nM] | Compound
34 | 2 | C[C@@H](Oc1cc(F)ccc1Nc1ncnc2cc(N=S3(=O)CCC3)cc(F)c12)C(=O)NC(CF)CF [Example 4.128]
35 | 2 | Cc1cc(N=S2(=O)CCC2)cc2ncnc(Nc3ccc(Cl)cc3O[C@H](C)C(=O)N[C@H](C)C(F)(F)F)c12 [Example 4.145]
36 | 2 | C[C@@H](C#N)NC(=O)[C@@H](C)Oc1cc(F)ccc1Nc1ncnc2cc(N=S3(=O)CCC3)cc(C(F)F)c12 [Example 4.102]
37 | 2 | COc1cc(N=S2(=O)CCC2)cc2ncnc(Nc3ccc(Cl)cc3O[C@H](C)C(=O)NCC(F)(F)F)c12 [Example 4.087]
38 | 2 | Cc1cc(N=S2(=O)CCCC2)cc2ncnc(Nc3ccc(F)cc3O[C@H](C)C(=O)NCCF)c12 [Example 4.105]
39 | 2 | Cc1cc(N=S2(=O)CCC2)cc2ncnc(Nc3cccnc3O[C@H](C)C(=O)NCC(F)F)c12 [Example 2.021]
40 | 2 | C[C@H](NC(=O)[C@@H](C)Oc1cc(F)ccc1Nc1ncnc2cc(N=S3(=O)CCC3)cc(C(F)F)c12)C(F)(F)F [Example 4.143]
41 | 2 | CCOc1cc(N=S2(=O)CCC2)cc2ncnc(Nc3ccc(Cl)cc3O[C@H](C)C(=O)N[C@@H](C)C#N)c12 [Example 4.095]
42 | 2 | Cc1cc(N=S(C)(C)=O)cc2ncnc(Nc3ccc(F)cc3OC(C)C(F)(F)F)c12 (racemic) [Example 1.013]
43 | 2 | C[C@H](NC(=O)[C@@H](C)Oc1cc(F)ccc1Nc1ncnc2cc(N=S(C)(C)=O)cc(Cl)c12)C(F)(F)F [Example 4.135]
44 | 1 | Cc1cc(N=S2(=O)CCC2)cc2ncnc(Nc3ccc(Cl)nc3O[C@H](C)C(=O)N[C@@H](C)C#N)c12 [Example 4.140]
45 | 1 | Cc1cc(N=S2(=O)CCC2)cc2ncnc(Nc3ccc(Cl)nc3O[C@H](C)C(=O)N[C@@H](C)C(F)(F)F)c12 [Example 4.094]
46 | 1 | Cc1cc(N=S2(=O)CCC2)cc2ncnc(Nc3ccc(Cl)nc3O[C@H](C)C(=O)NCC(F)(F)F)c12 [Example 4.124]
47 | 1 | Cc1cc(N=S2(=O)CCC2)cc2ncnc(Nc3ccc(Cl)cc3O[C@H](C)C(=O)NCC(F)F)c12 [Example 4.111]
48 | 1 | C[C@H](C#N)NC(=O)[C@@H](C)Oc1cc(F)ccc1Nc1ncnc2cc(N=S3(=O)CCC3)cc(F)c12 [Example 4.113]
49 | 1 | C[C@@H](Oc1cc(F)ccc1Nc1ncnc2cc(N=S3(=O)CC(C)(C)C3)cc(F)c12)C(=O)NCC#N [Example 2.026]
50 | 1 | Cc1cc(N=S2(=O)CCC2)cc2ncnc(Nc3ccc(F)cc3O[C@H](C)C(=O)NCC(F)(F)F)c12 [Example 4.139]
51 | 1 | Cc1cc(N=S2(=O)CCC2)cc2ncnc(Nc3ccc(Cl)cc3O[C@H](C)C(=O)N[C@@H](C)C(F)(F)F)c12 [Example 4.079]
52 | 1 | Cc1cc(N=S2(=O)CCC2)cc2ncnc(Nc3ccc(F)cc3O[C@H](C)C(=O)NC(CF)CF)c12 [Example 4.131]
53 | 1 | Cc1cc(N=S(C)(C)=O)cc2ncnc(Nc3ccc(F)cc3O[C@H](C)C(=O)NCC(F)F)c12 [Example 4.036]
54 | 1 | Cc1cc(N=S2(=O)CCC2)cc2ncnc(Nc3ccc(F)cc3O[C@H](C)C(=O)NC(C(F)(F)F)C(F)(F)F)c12 [Example 2.041]
55 | 1 | C[C@@H](Oc1cc(F)ccc1Nc1ncnc2cc(N=S3(=O)CCC3)cc(Cl)c12)C(=O)N[C@H](C)C(F)(F)F [Example 4.090]
56 | 1 | Cc1cc(N=S2(=O)CCC2)cc2ncnc(Nc3ccc(F)cc3O[C@H](C)C(=O)NCC#N)c12 [Example 4.103]
57 | 1 | Cc1cc(N=S2(=O)CCC2)cc2ncnc(Nc3ccc(Cl)cc3O[C@H](C)C(=O)NCC(F)(F)F)c12 [Example 4.122]
58 | 1 | C[C@@H](C#N)NC(=O)[C@@H](C)Oc1cc(Cl)ccc1Nc1ncnc2cc(N=S3(=O)CCCC3)cc(F)c12 [Example 4.093]
